Literature values, collected in US20070020197A1, “Preparation of pharmaceutical compositions containing nanoparticles” (WARNER-LAMBERT COMPANY LLC, priority 2004, published 2007).

Conditions: mean particle size reduced from 4.15 μm to 0.45 μm

O=C(NC(=O)c1ccccc1[N+](=O)[O-])Nc1ccc(Oc2ncc(Br)cn2)c(Cl)c1 [HO-221]
bioavailability change: doubling
